# Values quoted from earlier work in PubChem BioAssay AID1259409 (Chemical Carcinogenesis Research Information System (CCRIS), 2018).
# System: rodent chemically induced tumor inhibition, incidence and multiplicity
# Test: CCRIS tumor inhibitor studies
# Conditions: Dose [Inhibitor]: 0, Route [Inhibitor]: ORAL, Species: RAT
structure (smiles),measurement,setting,value
COc1ccc([C@@H]2CC(=O)c3c(O)cc(O[C@@H]4O[C@H](CO[C@@H]5O[C@@H](C)[C@H](O)[C@@H](O)[C@H]5O)[C@@H](O)[C@H](O)[C@H]4O)cc3O2)cc1O,"tumour outcome (control, treated, inhibition, significance)","Carcinogen: 4-NITROQUINOLINE-1-OXIDE, 56-57-5, 500 PPM IN DIET FOR 10 WK BEGINNING 1 WK PRIOR TO CARCINOGEN TREATMENT (STUDY DURATION: 32 WK), Strain/Sex: F344/MALE, Target Tissue: Type of Lesion: TONGUE: CARCINOMA, Dose [Carcinogen]: 20 PPM IN DRINKING WATER FOR 8 WK, Promoter: NONE USED","13/24 (54%), 4/18 (22%), 59%, p<0.05"
same,"tumour outcome (control, treated, inhibition, significance)","Carcinogen: 4-NITROQUINOLINE-1-OXIDE, 56-57-5, 500 PPM IN DIET FOR 10 WK BEGINNING 1 WK PRIOR TO CARCINOGEN TREATMENT (STUDY DURATION: 32 WK), Strain/Sex: F344/MALE, Target Tissue: Type of Lesion: TONGUE: PAPILLOMA, Dose [Carcinogen]: 20 PPM IN DRINKING WATER FOR 8 WK, Promoter: NONE USED","4/24 (17%), 2/18 (11%), 35%, not significant"
same,"tumour outcome (control, treated, inhibition, significance)","Carcinogen: 4-NITROQUINOLINE-1-OXIDE, 56-57-5, 500 PPM IN DIET FOR 22 WK BEGINNING 1 WK POST CARCINOGEN TREATMENT (STUDY DURATION: 32 WK), Strain/Sex: F344/MALE, Target Tissue: Type of Lesion: TONGUE: CARCINOMA, Dose [Carcinogen]: 20 PPM IN DRINKING WATER FOR 8 WK, Promoter: NONE USED","13/24 (54%), 8/19 (42%), 22%, not significant"
same,"tumour outcome (control, treated, inhibition, significance)","Carcinogen: 4-NITROQUINOLINE-1-OXIDE, 56-57-5, 500 PPM IN DIET FOR 22 WK BEGINNING 1 WK POST CARCINOGEN TREATMENT (STUDY DURATION: 32 WK), Strain/Sex: F344/MALE, Target Tissue: Type of Lesion: TONGUE: PAPILLOMA, Dose [Carcinogen]: 20 PPM IN DRINKING WATER FOR 8 WK, Promoter: NONE USED","4/24 (17%), 1/19 (5%), 71%, not significant"
same,"tumour outcome (control, treated, inhibition, significance)","Carcinogen: 4-NITROQUINOLINE-1-OXIDE, 56-57-5, 1000 PPM IN DIET FOR 10 WK BEGINNING 1 WK PRIOR TO CARCINOGEN TREATMENT (STUDY DURATION: 32 WK), Strain/Sex: F344/MALE, Target Tissue: Type of Lesion: TONGUE: PAPILLOMA, Dose [Carcinogen]: 20 PPM IN DRINKING WATER FOR 8 WK, Promoter: NONE USED","8/17 (47%), 1/19 (5%), 89%, p<0.01"
same,"tumour outcome (control, treated, inhibition, significance)","Carcinogen: 4-NITROQUINOLINE-1-OXIDE, 56-57-5, 1000 PPM IN DIET FOR 10 WK BEGINNING 1 WK PRIOR TO CARCINOGEN TREATMENT (STUDY DURATION: 32 WK), Strain/Sex: R344/MALE, Target Tissue: Type of Lesion: TONGUE: SQUAMOUS CELL CARCINOMA, Dose [Carcinogen]: 20 PPM IN DRINKING WATER FOR 8 WK, Promoter: NONE USED","11/17 (65%), 3/19 (16%), 75%, p<0.005"
same,"tumour outcome (control, treated, inhibition, significance)","Carcinogen: 4-NITROQUINOLINE-1-OXIDE, 56-57-5, 1000 PPM IN DIET FOR 22 WK BEGINNING 1 WK POST CARCINOGEN TREATMENT (STUDY DURATION: 32 WK), Strain/Sex: F344/MALE, Target Tissue: Type of Lesion: TONGUE: PAPILLOMA, Dose [Carcinogen]: 20 PPM IN DRINKING WATER FOR 8 WK, Promoter: NONE USED","8/17 (47%), 2/20 (10%), 79%, p<0.05"
same,"tumour outcome (control, treated, inhibition, significance)","Carcinogen: 4-NITROQUINOLINE-1-OXIDE, 56-57-5, 1000 PPM IN DIET FOR 22 WK BEGINNING 1 WK POST CARCINOGEN TREATMENT (STUDY DURATION: 32 WK), Strain/Sex: F344/MALE, Target Tissue: Type of Lesion: TONGUE: SQUAMOUS CELL CARCINOMA, Dose [Carcinogen]: 20 PPM IN DRINKING WATER FOR 8 WK, Promoter: NONE USED","11/17 (65%), 5/20 (25%), 62%, p<0.05"
same,"tumour outcome (control, treated, inhibition, significance)","Carcinogen: AZOXYMETHANE, 25843-45-2, 0.1% IN DIET FOR 4 WK BEGINNING 1 WK PRIOR TO CARCINOGEN TREATMENT (STUDY DURATION: 32 WK), Strain/Sex: F344/MALE, Target Tissue: Type of Lesion: COLON: ADENOCARCINOMA, Dose [Carcinogen]: 15 MG/KG BW 1/WK FOR 3 WK, Promoter: NONE","70%, 5%, 93%, p<0.001"
same,"tumour outcome (control, treated, inhibition, significance)","Carcinogen: AZOXYMETHANE, 25843-45-2, 0.1% IN DIET FOR 28 WK BEGINNING 1 WK POST LAST CARCINOGEN DOSE (STUDY DURATION: 32 WK), Strain/Sex: F344/MALE, Target Tissue: Type of Lesion: COLON: ADENOCARCINOMA, Dose [Carcinogen]: 15 MG/KG BW 1/WK FOR 3 WK, Promoter: NONE","70%, 17%, 76%, p<0.005"
same,"tumour outcome (control, treated, inhibition, significance)","Carcinogen: AZOXYMETHANE, 25843-45-2, 1000 PPM IN DIET FOR 4 WK BEGINNING 1 WK PRIOR TO CARCINOGEN TREATMENT (STUDY DURATION: 32 WK), Strain/Sex: F344/MALE, Target Tissue: Type of Lesion: LARGE INTESTINE: TUMOR, Dose [Carcinogen]: 15 MG/KG BW 1/WK FOR 3 WK, Promoter: NONE USED","12/17 (71%), 3/19 (16%), 77%, p<0.001"
same,"tumour outcome (control, treated, inhibition, significance)","Carcinogen: AZOXYMETHANE, 25843-45-2, 1000 PPM IN DIET FOR 4 WK BEGINNING 1 WK PRIOR TO CARCINOGEN TREATMENT (STUDY DURATION: 32 WK), Strain/Sex: F344/MALE, Target Tissue: Type of Lesion: SMALL INTESTINE: TUMOR, Dose [Carcinogen]: 15 MG/KG BW 1/WK FOR 3 WK, Promoter: NONE USED","5/17 (29%), 1/19 (5%), 83%, not significant"
same,"tumour outcome (control, treated, inhibition, significance)","Carcinogen: AZOXYMETHANE, 25843-45-2, 1000 PPM IN DIET FOR 28 WK BEGINNING 1 WK POST CARCINOGEN TREATMENT (STUDY DURATION: 32 WK), Strain/Sex: F344/MALE, Target Tissue: Type of Lesion: LARGE INTESTINE: TUMOR, Dose [Carcinogen]: 15 MG/KG BW 1/WK FOR 3 WK, Promoter: NONE USED","12/17 (71%), 3/20 (15%), 79%, p<0.001"
